According to patent publication US6960430B2, “Screening methods for compounds useful in the regulation of cell proliferation” (priority 1999, dated 2005):
“Also recorded” adds a separate entry of the source.

Columns and labels:
[1] = tested on: tetracycline-regulated transactivator protein tTA; assay: Hsp72 expression from adenovirus vector controlled by tetracycline-regulated transactivator in Rat-1 cells, immunoblot; format: cell-based; conditions: 20 nM
Excerpt: Recombinant adenovirus vector expressing Hsp72 (ADTR5Hsp72-GFP, curtesy of Dr. Mosser, Biotechnology Research Institute, Montreal) was constructed by cloning a dicistronic transcription unit encoding Hsp72 and Aequorea Victoria green fluorescent protein gene, separated by the encephalomyocarditis virus internal ribosome entry site from pTR-DC/Hsp70-GFP (Mosser et al., 1997a, Mol. Cell Biol, 17: 5317-5327; Mosser et al., 1997b, Biotechniques 22: 150-161) into an adenovirus transfer vector. Expression of this transcription unit is controlled by the tetracycline-regulated transactivator protein tTA (Mosser et al., 1997b, Biotechniques 22: 150-161) which we expressed from a separate recombinant adenovirus. Recombinant adenoviruses were generated by standard techniques as detailed by (Jani et al., 1997, J. Virol. Methods 64: 111-124). Viruses were used at stock concentration of 10^10 pfu/ml. […] Two-ml cell cultures grown in liquid medium in 35 mm dishes were infected in the presence or the absence of anhydrotetracycline with 3·10^7 pfu of each virus, sufficient for infection of almost 100% cells, and additional 10^7 pfu of each virus was added on days three and seven. After 24 hours incubation with viruses, cells were washed with PBS and placed in fresh media with or without anhydrotetracycline. […]

[2] = tested on: MVH cells; assay: Apoptosis by Hoechst-33342 staining in MVH cells (Rat-1 variant constitutively expressing Hsp72); format: cell-based; conditions: heat shock 45° C., 50 min, 0.5 mM, apoptosis assessed 7 hr after treatment
Description: The level of apoptosis was measured by fluorescent microscopy using Hoechst-33342 DNA-specific dye (10 μM). Shrinked cells with condensed or fragmented nuclei were counted as apoptotic. Cells were washed twice with PBS on a dish, aspirated and lysed by thoroughly scraping with a plastic scraper in 200 μL lysis buffer per a 35 mm dish (40 mM HEPES, pH 7.5; 50 mM KCl; […]; 2 mM DTT, 1 mM Na3VO4; 50 mM β-glycerophosphate; 50 mM NaF; 5 mM EDTA; 5 mM EGTA; 1 mM PMSF; 1 mM benzamedine; 5 μg/ml of each: leupeptine, pepstatine A, aprotenin). The lysates were clarified by centrifugation in a microcentrifuge at 15,000 rpm for 5 min. Total protein concentration was measured in the supernatants after which they were diluted with the lysis buffer to achieve equivalent concentration in all samples. All procedures were performed at 4° C.

[3] = tested on: JNK phosphatase(s); conditions: various cell lines; cited from earlier work
[4] = tested on: JNK phosphatase(s); assay: JNK inactivation (dephosphorylation) after heat shock in Hsp72-expressing MVH cells, immunoblot with antibody to phospho-JNK; format: cell-based, rat; conditions: for JNK inactivation / JNK dephosphorylation in heat-shocked MVH cells: 0.5 mM added 1 hr after heat shock (45° C., 50 min), recovery at 37° C., JNK1 by phospho-JNK antibody; for JNK activity, drug alone: unstressed cells, vanadate alone
Excerpt: Another assay for JNK activity allowed us to measure separately activity of two major isoforms (46 kDa JNK1 and 54 kDa JNK2) using JNK antibody specific to activated (phosphorylated) form of JNK (Promega, Wis.). For immunoblot analysis samples were subjected to Western immunoblotting. Secondary antibodies conjugated with peroxidase were visualized with ECL substrates (Amersham, Arlington Heights, Ill.) and resulting films were quantified by densitometry. Measurement of JNK phosphatase activity. In vivo INK phosphatase activity was measured as described earlier (Meriin, A. B., et al., 1999, Mol. Cell Biol. (In press)). […] […] The rate of JNK dephosphorylation was assessed under these conditions by immunoblotting with antibody which recognizes the activated (phosphorylated) form of JNK specifically.

Structure (SMILES)	Hsp72 expression after infection with both adenoviruses [1]	heat-induced apoptosis of MVH cells (thermoresistance, anti-apoptotic effect of Hsp72) ([2]; listed as Ortho-vanadate)	heat-induced apoptosis of MVH cells (thermoresistance, anti-apoptotic effect of Hsp72) ([2]; listed as vanadate)	suppression of JNK phosphatase(s) [3]	JNK inactivation / JNK dephosphorylation in heat-shocked MVH cells [4]	JNK inactivation / JNK dephosphorylation in heat-shocked MVH cells ([4]; listed as Ortho-vanadate)	JNK activity, drug alone ([4]; listed as Ortho-vanadate)	JNK activity, drug alone ([4]; listed as vanadate)
Cc1c2c(c(O)c3c(O)cccc13)C(=O)[C@]1(O)C(=O)C(C(N)=O)=C(O)[C@@H](N(C)C)[C@@H]1C2 [anhydrotetracycline]	expression of Hsp72 in the absence of tetracycline but not in the presence of 20 nM of anhydrotetracycline							
[O]=[V]([O-])([O-])[O-] [ortho-vanadate]		abolishes thermoresistance	completely reversed anti-apoptotic effect of Hsp72; also recorded: dramatically increased	effectively suppresses JNK phosphatase(s)	strongly inhibited JNK inactivation	inhibits JNK dephosphorylation	no significant effect on JNK activity	affected neither JNK activity
